The values below come from PubChem BioAssay AID1259407 (Chemical Carcinogenesis Research Information System (CCRIS), 2018).

In this data set the test system is CCRIS mutagenicity, Ames/micronucleus/aberration tests. Description: CCRIS mutagenicity studies.
The mark [1] stands for this setting: Test System: AMES SALMONELLA TYPHIMURIUM, Strain/Indicator: TA98, Metabolic Activation: NONE, Method: STANDARD PLATE.
The mark [2] stands for this setting: Test System: AMES SALMONELLA TYPHIMURIUM, Strain/Indicator: TA100, Metabolic Activation: NONE, Method: STANDARD PLATE.
Where [3] appears, read: Test System: E. COLI, Strain/Indicator: WP2 UVRA, Metabolic Activation: NONE, Method: SPOT.

Calls of active or inactive are those of the source. No rule for the calls is given here.

Turning to `C=CCBr`, the mutagenic call reads like this: (End Point: IN VITRO CHROMOSOMAL ABERRATIONS, Test System: CHL CELLS, Metabolic Activation: NONE) “active; positive (structural changes)”; (End Point: IN VITRO CHROMOSOMAL ABERRATIONS, Test System: CHL CELLS, Metabolic Activation: RAT, LIVER, S-9, SODIUM PHENOBARBITAL AND 5,6-BENZOFLAVONE) “inactive; negative; authors report equivocal results for structural changes at 0.06 mg/ml”; (End Point: In vivo micronucleus, Species: Mouse, Strain/Sex: C57BL/6/Male, Route: Oral) “inactive; negative”; (End Point: In vivo micronucleus, Test System: Peripheral blood normochromatic erythrocytes, Species: Mouse, Strain/Sex: C57BL/6/Female, Route: Oral) “inactive; negative”; (End Point: In vivo micronucleus, Test System: Peripheral blood normochromatic erythrocytes, Species: Mouse, Strain/Sex: FVB/N/Female, Route: Oral) “inactive; negative”; (End Point: In vivo micronucleus, Test System: Peripheral blood normochromatic erythrocytes, Species: Mouse, Strain/Sex: FVB/N/Male, Route: Oral) “inactive; negative”. Further, the mutagenic call by setting is: (End Point: In vivo micronucleus, Test System: Peripheral blood normochromatic erythrocytes, Species: Mouse, Strain/Sex: P53 Haploinsufficient/Female, Route: Oral) “inactive; negative”; (End Point: In vivo micronucleus, Test System: Peripheral blood normochromatic erythrocytes, Species: Mouse, Strain/Sex: P53 Haploinsufficient/Male, Route: Oral) “inactive; negative”; (End Point: In vivo micronucleus, Test System: Peripheral blood normochromatic erythrocytes, Species: Mouse, Strain/Sex: Tg.AC Hemizygous/Female, Route: Oral) “inactive; negative”; (End Point: In vivo micronucleus, Test System: Peripheral blood normochromatic erythrocytes, Species: Mouse, Strain/Sex: Tg.AC Hemizygous/Male, Route: Oral) “inactive; negative”; (Test System: Ames Salmonella typhimurium, Strain/Indicator: TA98, Metabolic Activation: Hamster, Liver, S-9, Aroclor 1254 (30%), Method: Standard plate) “inactive; negative”; (Test System: Ames Salmonella typhimurium, Strain/Indicator: TA98, Metabolic Activation: None, Method: Standard plate) “inactive; negative”. Moreover, the mutagenic call was “inactive; negative” (Test System: Ames Salmonella typhimurium, Strain/Indicator: TA98, Metabolic Activation: Rat, Liver, S-9, Aroclor 1254 (30%), Method: Standard plate); “active; positive (weak response)” (Test System: Ames Salmonella typhimurium, Strain/Indicator: TA100, Metabolic Activation: Hamster, Liver, S-9, Aroclor 1254 (30%), Method: Standard plate); “active; positive” (Test System: Ames Salmonella typhimurium, Strain/Indicator: TA100, Metabolic Activation: None, Method: Standard plate); “active; positive” (Test System: Ames Salmonella typhimurium, Strain/Indicator: TA100, Metabolic Activation: Rat, Liver, S-9, Aroclor 1254 (30%), Method: Standard plate).

As for `NC(=O)/C(=C\c1ccc([N+](=O)[O-])o1)c1ccco1`, the mutagenic call is, setting by setting: under setting [1], “active; positive”; (Test System: AMES SALMONELLA TYPHIMURIUM, Strain/Indicator: TA98, Metabolic Activation: RAT, LIVER, S-9, KC500 OR PHENOBARBITAL, Method: LIQUID SUSPENSION) “active; positive”; (Test System: AMES SALMONELLA TYPHIMURIUM, Strain/Indicator: TA100, Metabolic Activation: NONE, Method: PREINCUBATION) “active; positive”; under setting [2], “active; positive”; (Test System: AMES SALMONELLA TYPHIMURIUM, Strain/Indicator: TA100, Metabolic Activation: RAT, LIVER, S-9, KC500 OR PHENOBARBITAL, Method: LIQUID SUSPENSION) “active; positive”; (Test System: AMES SALMONELLA TYPHIMURIUM, Strain/Indicator: YG7112, Metabolic Activation: NONE, Method: PREINCUBATION) “active; positive”. Moreover, the mutagenic call is “active; positive” (Test System: AMES SALMONELLA TYPHIMURIUM, Strain/Indicator: YG7113, Metabolic Activation: NONE, Method: PREINCUBATION); “active; positive” (Test System: AMES SALMONELLA TYPHIMURIUM, Strain/Indicator: YG7119, Metabolic Activation: NONE, Method: PREINCUBATION); “active; positive” (Test System: Ames Salmonella typhimurium, Strain/Indicator: TA100, Metabolic Activation: None, Method: Preincubation); “active; positive (at higher doses)” (Test System: Ames Salmonella typhimurium, Strain/Indicator: TA1975P, Metabolic Activation: None, Method: Preincubation); “active; positive” (Test System: CHINESE HAMSTER V-79, Strain/Indicator: V-79/8-AZAGUANINE, Metabolic Activation: NONE, Method: STANDARD PLATE); “active; positive” (Test System: E. COLI, Strain/Indicator: WP2, Metabolic Activation: NONE, Method: PREINCUBATION). The mutagenic call reads like this: under setting [3], “active; positive”; (Test System: MOUSE LYMPHOMA, Strain/Indicator: L5178Y (TK+/TK-), Metabolic Activation: NONE, Method: SUSPENSION/PLATE) “active; positive”; (Test System: MOUSE LYMPHOMA, Strain/Indicator: L5178Y (TK+/TK-), Metabolic Activation: RAT, LIVER, S-9, AROCLOR 1254, Method: SUSPENSION/PLATE) “active; positive”.

Take `COc1cc(N)cc(OC)c1N`: the mutagenic call runs as follows: under setting [1], “inactive; negative”; (Test System: AMES SALMONELLA TYPHIMURIUM, Strain/Indicator: TA98, Metabolic Activation: RAT, LIVER, S-9, AROCLOR 1254, Method: STANDARD PLATE) “inactive; negative”; under setting [2], “inactive; negative”; (Test System: AMES SALMONELLA TYPHIMURIUM, Strain/Indicator: TA100, Metabolic Activation: RAT, LIVER, S-9, AROCLOR 1254, Method: STANDARD PLATE) “inactive; negative”; (Test System: AMES SALMONELLA TYPHIMURIUM, Strain/Indicator: TA1535, Metabolic Activation: NONE, Method: STANDARD PLATE) “inactive; negative”; (Test System: AMES SALMONELLA TYPHIMURIUM, Strain/Indicator: TA1535, Metabolic Activation: RAT, LIVER, S-9, AROCLOR 1254, Method: STANDARD PLATE) “inactive; negative”. The mutagenic call was “inactive; negative” (Test System: AMES SALMONELLA TYPHIMURIUM, Strain/Indicator: TA1537, Metabolic Activation: NONE, Method: STANDARD PLATE); “inactive; negative” (Test System: AMES SALMONELLA TYPHIMURIUM, Strain/Indicator: TA1537, Metabolic Activation: RAT, LIVER, S-9, AROCLOR 1254, Method: STANDARD PLATE); “inactive; negative” (Test System: AMES SALMONELLA TYPHIMURIUM, Strain/Indicator: TA1538, Metabolic Activation: NONE, Method: STANDARD PLATE); “inactive; negative” (Test System: AMES SALMONELLA TYPHIMURIUM, Strain/Indicator: TA1538, Metabolic Activation: RAT, LIVER, S-9, AROCLOR 1254, Method: STANDARD PLATE).

Regarding `NC(=O)N/N=C(/CCN1CCCCC1)c1ccc([N+](=O)[O-])o1`, the mutagenic call runs as follows: (Test System: E. COLI, Strain/Indicator: WP2, Metabolic Activation: NONE, Method: SPOT) “active; positive”; under setting [3], “active; positive”.

In the case of `CCc1c2ccccc2c(C)c2c1ccc1ccccc12`, the mutagenic call reads like this: (Test System: AMES SALMONELLA TYPHIMURIUM, Strain/Indicator: TA98, Method: STANDARD PLATE) “inactive; negative”; (Test System: AMES SALMONELLA TYPHIMURIUM, Strain/Indicator: TA100, Metabolic Activation: RAT, LIVER, S-9, PHENOBARBITAL, Method: STANDARD PLATE) “inactive; negative”; (Test System: AMES SALMONELLA TYPHIMURIUM, Strain/Indicator: TA100, Method: STANDARD PLATE) “inactive; negative”.
